Experimental data: paper PMC8878317, “Chemogenomics identifies acetyl-coenzyme A synthetase as a target for malaria treatment and prevention” (Cell Chemical Biology, 2022)
Read-outs that look alike come from different tables or passages of the source.

Columns and labels:
Assay type in all cases: cell-based
[1] = system: histone acetylation in P. falciparum 3D7-A10; test: Histone acetylation Western blot, wild-type 3D7-A10; settings: trophozoites, 3 h exposure
Experimental: Synchronous trophozoite-stage (24-32hr post-invasion) cultures at 3–5% parasitemia and 2% hematocrit in complete medium were exposed to test compounds for 3 hr at 37°C. […] DMSO was tested at 0.1% as the vehicle-only control. Following drug exposure, parasites were isolated via saponin lysis ice-cold 0.1% saponin in phosphate-buffered saline (PBS). Isolated parasites were washed 3x in ice-cold PBS containing protease inhibitor cocktail (cOmplete mini, Roche) and lysed in 1x Laemmli Sample Buffer (Biorad) with 5% beta-mercaptoethanol (Sigma-Aldrich). Samples were heated at 99°C for 10 min before centrifugation. Equal quantities of solute were separated on Protean TGX Precast Gels (4–20% gradient) in Tris-SDS-glycine buffer, transferred to nitrocellulose membrane by iblot (Invitrogen), and blocked for 1h in tris-buffered saline (TBS) with 5% skim milk powder. Blocked membranes were probed with antibodies recognising tetra-acetylated H4 (H4ac4, Sigma-Aldrich 06–866), H4K8ac (CST #2594), H3K9ac (CST #9649) or H3 (CST #4499), at 1:1000 dilution, and PfBiP ([Shonhai et al., 2007]) (at 1:5000 dilution) in 3% milk powder TBS with 0.1% Tween 20 at 4°C overnight and with 800CW goat α-rabbit IgG (Licor) at 1:10,000 dilution. Membranes were visualised using a Licor Odyssey CLX imaging system and quantified using ImageJ.

[2] = system: P. falciparum 3D7 parasites; test: Metabolomic profiling of compound-treated parasites (LC/MS); design: Metabolite data: dTMP / Metabolite data: GMP / Metabolite data: S-Adenosyl-L-Homocysteine / Metabolite data: 1_3-Bisphosphoglyceric acid: scale not given here;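 for Metabolite data: 3-Phosphoglycerate: Log2 fold change in abundance versus untreated parasite controls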;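 for Metabolite data: Myo-Inositol: Log2 fold change in abundance versus untreated parasite controls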;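 for Metabolite data: N-Carbamoyl-L-Aspartate: Log2 fold change in abundance versus untreated parasite controls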;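 for Metabolite data: Nicotinate: Log2 fold change in abundance versus untreated parasite controls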
Method in brief: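 Magnetically purified trophozoites (1×10^8 parasites/mL) recovered 1 h in RPMI 1640, incubated a further 2.5 h, quenched in 90% methanol with labeled aspartate. Extracts analysed by reverse-phase C18 LC with negative-mode Orbitrap MS; peak areas normalized to internal standards, blank-subtracted and averaged by condition.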

P. falciparum parasites = test: Isobologram analyses (fractional IC50 of compound combinations); settings: combination with TSA
[3] = system: P. falciparum MMV084978-resistant clones (Dd2-B2 derived); test: Dose-response assay of MMV084978-selected resistant clones; settings: Plasmodium falciparum
Experimental: Ring-stage parasites were cultured for 72 hr at 1% hematocrit and 1% starting parasitemia in 384-well black clear-bottom plates containing test compounds plated in triplicate in 12-point serial dilutions. […] Alternatively, Dd2-B2 ring-stage cultures at 0.3% parasitemia and 1% hematocrit were exposed for 72 hr to a range of ten drug concentrations that were 2-fold serially diluted in duplicates along with drug-free controls. Parasite survival was assessed by flow cytometry on an Accuri C6 (BD Biosciences) using SYBR Green and MitoTracker Deep Red FM (Life Technologies) as nucleic acid stain and vital dyes respectively. EC50 values were calculated using a nonlinear regression curve fit in Prism Software version 8 (GraphPad).
Bulk cultures were tested for reduced drug susceptibility and individual clones were isolated by limiting dilution.

O=C1C(O)=C([C@H]2CC[C@H](c3ccc(Cl)cc3)CC2)C(=O)c2ccccc21 [Atovaquone, reference compound]
acetylation of H4K8ac, H3K9ac and tetra-acetylated H4 (H4Ac4) histone markers relative to DMSO [1]: no effect
Metabolite data: 1_3-Bisphosphoglyceric acid [2]: 0
Metabolite data: 2_3-Diphosphoglyceric acid [2]: -0.24
Metabolite data: 3-Phosphoglycerate [2]: 0
Metabolite data: 4-Aminobutyrate [2]: 0.16
Metabolite data: 4-Phosphopantothenate [2]: -0.34
Metabolite data: 4-phosphopantetheine [2]: 0
Metabolite data: 5-aminopentanoic acid [2]: 0
Metabolite data: 5-phosphoribosyl-1-pyrophosphate [2]: 0
Metabolite data: 6-Phospho-D-Gluconate [2]: 0.06
Metabolite data: ADP-D-Glucose [2]: 0.04
Metabolite data: Acetyl-CoA [2]: -0.68
Metabolite data: Acetyllysine [2]: -0.01
Metabolite data: Aconitate [2]: 0.31
Metabolite data: CDP [2]: -0.84
Metabolite data: CDP-Ethanolamine [2]: -0.15
Metabolite data: CDP-choline [2]: 0
Metabolite data: CMP [2]: -0.8
Metabolite data: CTP [2]: -0.85
Metabolite data: Citrate/Isocitrate [2]: -0.17
Metabolite data: Cyclic-AMP [2]: 0.13
Metabolite data: Dihydroorotate [2]: 4.84
Metabolite data: FAD [2]: 0.09
Metabolite data: FMN [2]: -1.11
Metabolite data: Fructose-1,6-Bisphosphate [2]: 0.15
Metabolite data: Fumarate [2]: 0.18
Metabolite data: GDP [2]: -0.12
Metabolite data: GMP [2]: 0.4
Metabolite data: GTP [2]: 0.09
Metabolite data: Glucose-1/6-Phosphate [2]: -0.03
Metabolite data: Glutathione Disulfide [2]: 0.11
Metabolite data: Hexose [2]: 0
Metabolite data: Hydroxyisocaproic acid [2]: 0
Metabolite data: Indole [2]: 0.06
Metabolite data: Ketoleucine [2]: 0
Metabolite data: L-arginino-succinate [2]: 0
Metabolite data: Lactate [2]: 0.09
Metabolite data: Malate [2]: 0.05
Metabolite data: Myo-Inositol [2]: -0.06
Metabolite data: N-Acetyl-Glutamate [2]: 0.13
Metabolite data: N-Acetyl-L-Alanine [2]: 0.22
Metabolite data: N-Acetyl-L-Ornithine [2]: -0.16
Metabolite data: N-Carbamoyl-L-Aspartate [2]: 4.58
Metabolite data: NAD+ [2]: 0.08
Metabolite data: NADH [2]: 1.7
Metabolite data: NADP+ [2]: -0.1
Metabolite data: NADPH [2]: 0.32
Metabolite data: Nicotinate [2]: -0.09
Metabolite data: Octulose 8/1-Phosphate [2]: -0.01
Metabolite data: Orotate [2]: 0.81
Metabolite data: PD [2]: 0
Metabolite data: PE [2]: 0
Metabolite data: PEEK [2]: 0
Metabolite data: Phenol Red [2]: 0
Metabolite data: Pyroglutamic acid [2]: 0.06
Metabolite data: S-Adenosyl-L-Homocysteine [2]: 0.32
Metabolite data: S-methyl-5'-thioadenosine [2]: -0.26
Metabolite data: SD [2]: 0
Metabolite data: Sedoheptulose Bisphosphate [2]: 0.01
Metabolite data: UDP [2]: -1.17
Metabolite data: UDP-D-Glucose [2]: -0.06
Metabolite data: UDP-D-Glucuronate [2]: -0.13
Metabolite data: UDP-N-Acetyl-Glucosamine [2]: -0.25
Metabolite data: UMP [2]: -0.68
Metabolite data: UTP [2]: -1.12
Metabolite data: a-ketoglutarate [2]: -0.04
Metabolite data: acetyl-aspartate [2]: 0
Metabolite data: arginine [2]: 0
Metabolite data: asparagine [2]: 0
Metabolite data: aspartate [2]: 0
Metabolite data: biotin [2]: 0
Metabolite data: chlorpropamide [2]: 0
Metabolite data: coenzyme A [2]: 0
Metabolite data: dAMP [2]: -0.09
Metabolite data: dATP [2]: 0.28
Metabolite data: dCDP [2]: -0.01
Metabolite data: dCMP [2]: -0.39
Metabolite data: dCTP [2]: -0.38
Metabolite data: dGDP/ADP [2]: 0
Metabolite data: dGMP/AMP [2]: -0.1
Metabolite data: dGTP/ATP [2]: 0
Metabolite data: dTDP [2]: -0.95
Metabolite data: dTMP [2]: -0.81
Metabolite data: dTTP [2]: -0.98
Metabolite data: folate [2]: 0
Metabolite data: glucono-lactone [2]: 0
Metabolite data: glutamate [2]: 0
Metabolite data: glutamine [2]: 0
Metabolite data: glutathione [2]: 0
Metabolite data: histidine [2]: 0
Metabolite data: hydroxyproline/Aminolevulinate [2]: 0
Metabolite data: isoleucine [2]: 0
Metabolite data: leucine [2]: 0
Metabolite data: maleic acid [2]: 0
Metabolite data: methionine [2]: 0
Metabolite data: nicotinamide mononucleotide [2]: 0
Metabolite data: orotidine-5'-phosphate [2]: 0

CCN(CC)S(=O)(=O)c1ccc(Cl)c(C(=O)Nc2ccc3nc(C)sc3c2)c1 [MMV019721]
interaction in isobologram analyses with the HDAC inhibitor TSA (P. falciparum parasites): strongly antagonistic

O=C(NNC(=O)c1csnn1)c1ccc(Cl)cc1 [MMV084978]
EC50 ([3]; DD2, read-out: MMV084978 mean EC50 (nM) ± SD (n), selection 1, Dd2-B2, clone A7, AcAS:A597V): > 9600 nM
EC50 ([3]; DD2, read-out: MMV084978 mean EC50 (nM) ± SD (n), selection 1, Dd2-B2, clone C11, sequencing not determined): 2500 ± 42 nM
EC50 ([3]; DD2, read-out: MMV084978 mean EC50 (nM) ± SD (n), selection 1, Dd2-B2, clone E5, sequencing not determined): 2600 ± 47 nM
EC50 ([3]; DD2, read-out: MMV084978 mean EC50 (nM) ± SD (n), selection 1, Dd2-B2, clone F1, sequencing not determined): 2800 ± 260 nM
EC50 ([3]; DD2, read-out: MMV084978 mean EC50 (nM) ± SD (n), selection 1, Dd2-B2, clone F9, sequencing not determined): 2100 ± 53 nM
EC50 ([3]; DD2, read-out: MMV084978 mean EC50 (nM) ± SD (n), selection 1, Dd2-B2, clone G8, AcAS:A652S): 2500 ± 24 nM
EC50 ([3]; DD2, read-out: MMV084978 mean EC50 (nM) ± SD (n), selection 2, Dd2-B2, clone B8, sequencing not determined): 2400 ± 33 nM
EC50 ([3]; DD2, read-out: MMV084978 mean EC50 (nM) ± SD (n), selection 2, Dd2-B2, clone C4, sequencing not determined): 2400 ± 1.7 nM
EC50 ([3]; DD2, read-out: MMV084978 mean EC50 (nM) ± SD (n), selection 2, Dd2-B2, clone E9, AcAS:A652S): 2600 ± 76 nM
EC50 ([3]; DD2, read-out: MMV084978 mean EC50 (nM) ± SD (n), selection 2, Dd2-B2, clone F8, sequencing not determined): 2600 ± 7 nM
EC50 ([3]; DD2, read-out: MMV084978 mean EC50 (nM) ± SD (n), selection 2, Dd2-B2, clone H12, AcAS:Y607C): 970 ± 41 nM
